Values after ≈ are worked out from the molar mass of the structure shown.
Legend:
[1] = test system: murine Swiss albino fibroblasts (3T3); test: Cell viability assay, NRU endpoint, 3T3; type: cell-based; details: Mus musculus, Fibroblast, 3T3, 24 h incubation, 10–250 µg/mL
Description: (§1) The murine Swiss albino fibroblasts (3T3), the human breast adenocarcinoma (MCF-7), the human epithelial carcinoma (HeLa) and the squamous cell carcinoma (A431) cell lines were obtained from Celltec UB. Cells were grown in DMEM medium (4.5 g/L glucose) supplemented with 10% (v/v) FBS, 2 mM L-glutamine, 100 U/mL penicillin and 100 µg/mL streptomycin at 37 °C, 5% CO2. Cells were routinely cultured in 75 cm^2 culture flasks and were trypsinized using trypsin–EDTA when the cells reached approximately 80% confluence. The trypan blue assay, which allows for a direct identification and enumeration of the live (unstained) and dead (blue) cells in the cell population, was used to evaluate the viability of the cells in the cell suspension obtained.
(§2) 3T3 (1 × 10^5 cells/mL), A431, HeLa and MCF-7 cells (5 × 10^4 cells/mL) were grown at defined densities in the 60 central wells of a 96-well plate. Cells were incubated for 24 h in 5% CO2 at 37 °C. Then, the spent medium was removed, and cells were incubated for 24 h with their corresponding compound solutions (1 mg/mL) previously diluted in a minimum amount of DMF (dimethylformamide) and then in DMEM medium supplemented with 5% FBS (100 µL) at the required concentration range (10–250 µg/mL). The viability of the cells upon incubation with the lactam derivatives was assayed using 2 different endpoints: NRU and MTT.
(§3) The neutral red uptake (NRU) assay is based on the accumulation of dye in the lysosomes of viable cells. After the cells were incubated for 24 h with the corresponding systems, the medium was removed, and the solutions were incubated with the NR dye (Sigma-Aldrich, St. Louis, MO, USA) solution (50 µg/mL) dissolved in the medium, without FBS and without phenol red (Lonza, Verviers, Belgium), for 3 h. Cells were then washed with sterile PBS, followed by the addition of 100 µL of a solution containing 50% absolute ethanol and 1% acetic acid in distilled water to extract the dye. To promote the total dissolution of the dye, plates were placed in a microtiter-plate shaker for 5 min at room temperature. The absorbance of the resulting solutions was measured at 550 nm (Bio-Rad 550 microplate reader, Bio-Rad California, Hercules, CA, USA). Finally, the effect of each treatment was calculated as the percentage of dye uptake by viable cells relative to the control cells (cells without any treatment).
(§4) The corresponding half-maximal inhibitory concentration (IC50) values for the different formulations as a function of the cell line and endpoint were determined from the fitting of concentration-dependent viability curves. The corresponding selectivity indexes toward tumoral cells were calculated using the following ratio: SI = IC50 (non-tumoral cell line)/IC50 (tumoral cell line) where 3T3 fibroblasts were used as close representative cells under non-tumoral conditions. Moreover, pseudo selectivity indexes toward tumoral cells were calculated considering the discrete cellular responses at the maximum tested concentration (250 µg/mL).

[2] = test system: human breast adenocarcinoma (MCF-7) cell line; test: Cell viability assay, MTT endpoint, MCF-7; type: cell-based; details: MTT; for IC50: Homo sapiens, MCF7, 24 h incubation, 10–250 µg/mL
Description: as §1, §2
(§5) Only living cells can reduce the yellow tetrazolium salt 3-(4,5-dimethyl-2-thiazolyl)-2,5-diphenyltetrazolium bromide (MTT) to insoluble purple formazan crystals. After a 24 h incubation of the cells with their corresponding NPs, the medium was removed and 100 µL of MTT (Sigma-Aldrich, St. Louis, USA) in PBS (5 mg/mL) diluted 1:10 in culture medium without phenol red and without FBS (Lonza, Verviers, Belgium) was added to the cells. After 3 h of incubation, the medium was removed. Thereafter, 100 µL of DMSO (Sigma-Aldrich, St. Louis, MO, USA) was added to each well to dissolve the purple formazan crystals. Agitation and determination of the absorbance of the extracted solution were performed under the same conditions as described in NRU Assay section. Finally, the effect of each treatment was calculated as the percentage of tetrazolium salt’s reduction by viable cells relative to control cells (cells without any treatment).
as §4

[3] = test system: human breast adenocarcinoma (MCF-7) cell line; test: Cell viability assay, NRU endpoint, MCF-7; type: cell-based; details: for IC50: Homo sapiens, MCF7, 24 h incubation, 10–250 µg/mL
Description: as §1, §2, §3, §4

[4] = test system: human epithelial carcinoma (HeLa) cell line; test: Cell viability assay, NRU endpoint, HeLa; type: cell-based; details: 24 h incubation, 10–250 µg/mL
Description: as §1, §2, §3, §4

[5] = test system: squamous cell carcinoma (A431) cell line; test: Cell viability assay, MTT endpoint, A431; type: cell-based; details: for SI250 (selective toxicity at 250 µg/mL): A431 compared to 3T3, 250 µg/mL, 24 h; for IC50: Homo sapiens, A-431, 24 h
Description: as §1, §2, §5, §4

[6] = Cell viability assay, MTT endpoint, cell line not specified; type: cell-based; details: under discrete conditions, up to 250 µg/mL, read-out: minimum cell viability values
Description: as §1
3T3 (1 × 10^5 cells/mL), A431, HeLa and MCF-7 cells (5 × 10^4 cells/mL) were grown at defined densities in the 60 central wells of a 96-well plate. […]
Only living cells can reduce the yellow tetrazolium salt 3-(4,5-dimethyl-2-thiazolyl)-2,5-diphenyltetrazolium bromide (MTT) to insoluble purple formazan crystals. […] Agitation and determination of the absorbance of the extracted solution were performed under the same conditions as described in NRU Assay section. Finally, the effect of each treatment was calculated as the percentage of tetrazolium salt’s reduction by viable cells relative to control cells (cells without any treatment).

[7] = test system: human epithelial carcinoma (HeLa) cell line; test: Cell viability assay, MTT endpoint, HeLa; type: cell-based; details: for IC50: Homo sapiens, 24 h
Description: as §1, §2, §5, §4

[8] = test system: squamous cell carcinoma (A431) cell line; test: Cell viability assay, NRU endpoint, A431; type: cell-based; details: for IC50: Homo sapiens, A-431, 24 h, A431, 24 h incubation, 10–250 µg/mL
Description: as §1, §2, §3, §4

human erythrocytes = test: Hemolysis assay with human erythrocyte suspension; type: cell-based; details: 80 µg/mL, PBS pH 7.4
Description: (§6) Human blood samples were obtained from the Banc de Sang i Teixits de Barcelona (Spain) from the Catalan Department of Health. Blood was deposited in tubes with the anticoagulant EDTA-K3. Blood samples were centrifuged at 3000 rpm and 4 °C for 10 min (Megafuge 2.0 R. Heraeus Instruments, Hanau, Germany) to induce sedimentation. Plasma was extracted with a Pasteur pipette. Next, the residual pellet was washed with PBS at pH 7.4. This procedure was repeated three times to remove residual leukocytes and platelets and to concentrate the erythrocytes. Following the last wash, the erythrocyte suspension was diluted (1:1) in PBS at pH 7.4 to obtain a suitable erythrocyte suspension (cell density of 8 × 10^9 cell/mL).
(§7) The hemolysis assay determined the capability of different compounds to induce the hemolysis of the erythrocyte membrane. Stock solutions of each compound at 1 mg/mL in PBS at pH 7.4 were prepared. Different volumes (10–80 μL) were placed in polystyrene tubes, and an aliquot of 25 µL of the erythrocyte suspensions was added to each tube. The final volume was 1 mL. The tubes were incubated at room temperature under rotatory conditions. Then, the tubes were centrifuged at 10,000 rpm for 5 min. The supernatants’ absorbance at 540 nm (Shimadzu UV-160A, Shimadzu, Duisburg, Germany) was compared with that of the positive (erythrocytes hemolyzed with distilled water) and negative (erythrocyte suspension in PBS at pH 7.4.) controls.
(§8) The degree of hemolysis was determined using the following equation:Hemolysis (%) = 100 × (Abs − Abs0)/(Abs100 − Abs0) where Abs, Abs0 and Abs100 are the absorbance of the test samples, of the suspension treated with isotonic phosphate–buffered saline (PBS) and of the suspension of complete hemolysis treated with distilled water, respectively.

[9] = Hemolysis assay with human erythrocyte suspension; type: cell-based; details: human, washed human erythrocyte suspension, PBS pH 7.4, read-out: degree of hemolysis
Description: as §6, §7, §8

[10] = test system: murine Swiss albino fibroblasts (3T3); test: Cell viability assay, MTT endpoint, 3T3; type: cell-based; details: Mus musculus, Fibroblast, 3T3, 24 h incubation, 10–250 µg/mL
Description: as §1, §2, §5, §4

[11] = Cell viability assay, NRU endpoint, cell line not specified; type: cell-based; details: up to 250 µg/mL, read-out: minimum cell viability values
Description: as §1, §2, §3

[12] = Cell viability assay, MTT endpoint, A431; type: cell-based; details: human, A431 squamous cell carcinoma cells, A431, highest assayed concentration 250 µg/mL, 24 h
Description: as §1, §2, §5, §4

[13] = Cell viability assay, MTT endpoint, HeLa; type: cell-based, human; details: human, HeLa cells, HeLa, 250 µg/mL, 24 h
Description: as §1, §2, §5, §4

[14] = Cell viability assay, MTT endpoint, 3T3; type: cell-based, murine; details: mouse, 3T3 fibroblasts, 3T3, 250 µg/mL, 24 h
Description: as §1, §2, §5, §4

[15] = test system: 3T3, A431, HeLa and MCF-7 cell lines; test: Cell viability assays (MTT and NRU), endpoint and cell line not specified; type: cell-based; details: range over cell lines; read-out: lowest IC50 values as a function of cell line
Description: The murine Swiss albino fibroblasts (3T3), the human breast adenocarcinoma (MCF-7), the human epithelial carcinoma (HeLa) and the squamous cell carcinoma (A431) cell lines were obtained from Celltec UB. Cells were grown in DMEM medium (4.5 g/L glucose) supplemented with 10% (v/v) FBS, 2 mM L-glutamine, 100 U/mL penicillin and 100 µg/mL streptomycin at 37 °C, 5% CO2. Cells were routinely cultured in 75 cm^2 culture flasks and were trypsinized using trypsin–EDTA when the cells reached approximately 80% confluence. […]
The neutral red uptake (NRU) assay is based on the accumulation of dye in the lysosomes of viable cells. […] The absorbance of the resulting solutions was measured at 550 nm (Bio-Rad 550 microplate reader, Bio-Rad California, Hercules, CA, USA). Finally, the effect of each treatment was calculated as the percentage of dye uptake by viable cells relative to the control cells (cells without any treatment).
Only living cells can reduce the yellow tetrazolium salt 3-(4,5-dimethyl-2-thiazolyl)-2,5-diphenyltetrazolium bromide (MTT) to insoluble purple formazan crystals. […] Agitation and determination of the absorbance of the extracted solution were performed under the same conditions as described in NRU Assay section. Finally, the effect of each treatment was calculated as the percentage of tetrazolium salt’s reduction by viable cells relative to control cells (cells without any treatment). […]

[16] = A431, 24 h incubation, 10–250 µg/mL
[17] = HeLa, 24 h incubation, 10–250 µg/mL

SMILES	IC50 [1]	IC50 [2]	IC50 [3]	IC50 [4]	SI250 (selective toxicity at 250 µg/mL) [5]	IC50 [5, 16]	IC50 [7, 17]	IC50 [8]	hemolysis at 10 µg/mL [9]	IC50 [10]	viability at 24 h [11]	viability at 24 h, 250 µg/mL [12]	hemolysis at 80 µg/mL [9]	further results
O=C1N(Cc2ccccc2)[C@@H]2CC[C@@H](Cl)[C@@H](C2)C1(Cl)Cl (racemic) [2k, (1RS,5RS,6RS)-2-Benzyl-4,4,6-trichloro-2-azabicyclo[3.3.1] nonan-3-one]	–	–	–	–	–	–	–	–	–	–	–	–	–	melting point: 116 to 118 °C
O=C1NCC(CCl)C1(Cl)Cl (stereo not drawn) [2b, 3,3-Dichloro-4-(chloromethyl)pyrrolidin-2-one]	> 250 µg/mL	> 250 µg/mL	> 250 µg/mL	> 250 µg/mL	1.1	> 250 µg/mL	> 250 µg/mL	> 250 µg/mL	0.02%	> 250 µg/mL	80 to 85%	–	–	viability at 24 h [6]: 60 to 70%; degree of hemolysis (human erythrocytes): remained stable
CC(C)(C)N1CC(CCl)C(Cl)(Cl)C1=O (stereo not drawn) [2a, 1-(tert-Butyl)-3,3-dichloro-4-(chloromethyl)pyrrolidin-2-one]	> 250 µg/mL	> 250 µg/mL	> 250 µg/mL	> 250 µg/mL	3.3	192 µg/mL (≈ 743 µM)	195 µg/mL (≈ 754 µM)	–	0.02%	172 µg/mL (≈ 665 µM)	30%	5%	~0.07%	MTT SI MCF7 ([2]; SI = IC50 (3T3)/IC50 (MCF7)): <0.69; MTT IC50 A431 [5, 16]: 126 µg/mL; MTT SI A431 ([5]; SI = IC50 (3T3)/IC50 (A431)): 1.4; MTT IC50 Hela [7, 17]: 109 µg/mL; MTT SI HeLa ([7]; SI = IC50 (3T3)/IC50 (HeLa)): < 1; viability at 24 h, 250 µg/mL [13]: 15%; SI250 (selective toxicity at 250 µg/mL) ([8]; A431 compared to 3T3, 250 µg/mL, 24 h): 2.2; viability at 24 h, 250 µg/mL [14]: 15%; IC50 [15]: 100 to 250 µg/mL (≈ 387 to 967 µM)
O=C1N(c2ccccc2)CC(CCl)C1(Cl)Cl (stereo not drawn) [2d, 3,3-Dichloro-4-(chloromethyl)-1-phenylpyrrolidin-2-one]	> 250 µg/mL	> 250 µg/mL	> 250 µg/mL	> 250 µg/mL	1.4	–	> 250 µg/mL	> 250 µg/mL	0.005%	> 250 µg/mL	80 to 85%	50%	0.1%	SI250 (selective toxicity at 250 µg/mL) ([3]; MCF-7 compared to 3T3, 250 µg/mL, 24 h): one
